Source: ChEMBL document CHEMBL6096692, “Discovery of 2(1H)-Quinoxalinone Derivatives as Potent and Selective MAT2A Inhibitors for the Treatment of MTAP-Deficient Cancers” (J Med Chem, 2025)
Active and inactive are the calls of the source. No cut-off for these calls is given here.

Experiments:
[1] = Drug concentration in mouse plasma at 30 mg/kg, po; type: ADME, organism-based; conditions: in vivo
[2] = Plasma protein binding in human assessed as unbound fraction; type: ADME, cell-free
[3] = AUC (0 to t) in male ICR mouse at 10 mg/kg, po measured upto 36 hrs by LC-MS/MS analysis; type: ADME, organism-based; conditions: in vivo
B16-F10 [4] = assay: Antitumor activity against mouse B16-F10 cells harboring wild type MTAP implanted in mouse assessed as reduction in tumor volume at 30 to 60 mg/kg, po administered for 10 days and measured after 12 days; type: functional, organism-based; conditions: dose 30-60 mg/kg, time 22.0 day
[5] = Selectivity index, ratio of IC50 for antiproliferative activity against mouse B16-F10 cells harboring wild type MTAP assessed as inhibition of cell viability to IC50 for antiproliferative activity against MTAP knockout mouse B16-F10 cells assessed as inhibition of cell viability; type: functional
Daoy [6] = assay: Antitumor activity against human Daoy cells xenografted in mouse assessed as tumor growth inhibition at 30 mg/kg, po measured after 28 days; type: functional, organism-based; conditions: time 28.0 day
[7] = Lipophilicity, LogD of the compound in 1-Octanol/PBS by shake flask method; type: physicochemical
B16-F10 [8] = assay: Antiproliferative activity against MTAP knockout mouse B16-F10 cells assessed as inhibition of cell proliferation measured for 96 hrs by SRB assay; type: functional, cell-based
Daoy [9] = assay: Antitumor activity against human Daoy cells xenografted in mouse assessed as reduction in SDMA level in tumor at 30 mg/kg, po measured after 28 days; type: functional, organism-based; conditions: time 28.0 day
[10] = Bioavailability in male ICR mouse at 1 mg/kg measured upto 36 hrs by LC-MS/MS analysis; type: ADME, organism-based; conditions: in vivo
[11] = target: S-adenosylmethionine synthase isoform type-2 (Homo sapiens, UniProt P31153); assay: Inhibition of MAT2A in MTAP null human MIA PaCa-2 cells assessed as reduction in SAM level measured for 4 hrs by immunoblotting analysis; type: cell-based; conditions: dose <= 1.0 µM
Chain of S-adenosylmethionine synthase isoform type-2 (P31153 whole entry, looked up, canonical isoform): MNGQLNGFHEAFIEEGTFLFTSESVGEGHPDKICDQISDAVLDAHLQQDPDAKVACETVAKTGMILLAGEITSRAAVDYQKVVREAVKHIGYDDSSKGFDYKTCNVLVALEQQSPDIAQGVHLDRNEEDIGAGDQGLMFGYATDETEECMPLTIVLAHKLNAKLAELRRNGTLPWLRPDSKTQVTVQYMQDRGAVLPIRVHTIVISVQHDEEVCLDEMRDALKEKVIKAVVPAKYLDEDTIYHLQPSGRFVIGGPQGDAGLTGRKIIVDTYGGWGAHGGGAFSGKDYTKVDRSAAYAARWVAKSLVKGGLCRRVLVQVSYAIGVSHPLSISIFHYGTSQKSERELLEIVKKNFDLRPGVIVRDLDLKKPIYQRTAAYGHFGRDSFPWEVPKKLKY

B16-F10 [12] = assay: Antiproliferative activity against mouse B16-F10 cells harboring MTAP D220A mutant assessed as inhibition of cell proliferation measured for 96 hrs by SRB assay; type: functional, cell-based
Cytochrome P450 2C9 = Cytochrome P450 2C9 (Homo sapiens, UniProt P11712); assay: Inhibition of CYP2C9 in human liver microsomes using diclofenac as substrate incubated for 10 mins in presence of NADPH by LC-MS/MS analysis; type: ADME, Microsome
Chain of Cytochrome P450 2C9 (P11712 whole entry): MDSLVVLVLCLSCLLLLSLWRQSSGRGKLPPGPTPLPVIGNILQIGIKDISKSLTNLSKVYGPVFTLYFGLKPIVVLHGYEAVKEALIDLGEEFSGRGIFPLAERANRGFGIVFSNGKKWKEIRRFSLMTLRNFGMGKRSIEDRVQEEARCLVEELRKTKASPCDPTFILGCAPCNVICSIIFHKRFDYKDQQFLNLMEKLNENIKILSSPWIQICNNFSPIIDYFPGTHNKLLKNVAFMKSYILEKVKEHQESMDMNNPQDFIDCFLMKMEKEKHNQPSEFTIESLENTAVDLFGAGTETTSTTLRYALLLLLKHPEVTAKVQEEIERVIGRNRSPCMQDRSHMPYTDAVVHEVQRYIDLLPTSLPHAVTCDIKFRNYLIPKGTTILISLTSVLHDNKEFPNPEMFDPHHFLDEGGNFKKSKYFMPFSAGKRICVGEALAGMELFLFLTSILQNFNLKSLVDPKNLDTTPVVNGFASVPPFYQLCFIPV

SF-126 = assay: Induction of DNA damage in MTAP knockout human SF-126 cells assessed as increase in gammaH2AX level at 0.1 to 10 uM measured for 96 hrs by Western blot analysis; type: functional, cell-based; conditions: dose 0.1-10 µM
Cytochrome P450 1A2 = target: T1, Cytochrome P450 1A2 (Homo sapiens, UniProt P05177); assay: Inhibition of CYP1A2 in human liver microsomes using phenacetin as substrate incubated for 10 mins in presence of NADPH by LC-MS/MS analysis; type: ADME, Microsome
T1 sequence (P05177 whole entry): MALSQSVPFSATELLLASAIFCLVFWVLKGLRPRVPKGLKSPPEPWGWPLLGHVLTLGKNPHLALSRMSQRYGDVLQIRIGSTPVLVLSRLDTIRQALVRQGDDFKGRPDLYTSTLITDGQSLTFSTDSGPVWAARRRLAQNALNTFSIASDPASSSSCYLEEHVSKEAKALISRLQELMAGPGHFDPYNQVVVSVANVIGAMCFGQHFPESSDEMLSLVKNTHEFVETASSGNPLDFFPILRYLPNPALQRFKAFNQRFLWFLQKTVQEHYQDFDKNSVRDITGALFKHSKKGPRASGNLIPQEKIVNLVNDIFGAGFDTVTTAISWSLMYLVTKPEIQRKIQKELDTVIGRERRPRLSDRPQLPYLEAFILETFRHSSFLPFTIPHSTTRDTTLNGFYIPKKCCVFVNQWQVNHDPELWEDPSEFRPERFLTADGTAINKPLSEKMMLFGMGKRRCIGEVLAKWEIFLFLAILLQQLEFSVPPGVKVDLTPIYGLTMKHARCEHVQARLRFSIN

## Cn1cnc2ccc(-c3nc4ccc(C5CC5)cc4n(-c4ccc(OC(F)F)cc4)c3=O)cc21
[1]
  Drug uptake: Active
[2]
  fraction unbound: 0.003
[3]
  AUC(0-t) at 36 h: 36500 ng·h/mL
B16-F10 [4]
  Activity: Active
[5]
  Ratio IC50: >46.5
Daoy [6]
  TGI: Active
[7]
  logD: 3.69
B16-F10 [8]
  Activity: Active
Daoy [9]
  Activity: Active
[10]
  bioavailability: 118%
[11]
  inhibition: Dose-dependent-effect
B16-F10 [12]
  Activity: inactive
Cytochrome P450 2C9
  IC50: 12.7 µM
SF-126
  Activity: Active
Cytochrome P450 1A2
  IC50: > 30 µM
